Test system: KRAS-mutant PDC multicell tumor spheroid viability
Experiment: Anticancer human tumor 521955-158-R2-J5-PDC patient-derived pancreatic carcinoma cell line growth inhibition [KRAS2]
Settings: for IC50: curve of first compound; for viability, T/C: stronger effect = lower value
How it was run: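 KRAS-mutant tumor cells were grown as spheroids with HUVEC endothelial cells and human MSCs as stroma. Targeted agents were tested alone and with KRAS pathway inhibitors. Doses started at or near clinical Cmax, or 10 microM, descending half-log.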

[1] = second compound 0.1 µM, first compound 0.0316 µM
[2] = second compound 0.1 µM, first compound 0.1 µM
[3] = second compound 0.1 µM, first compound 0.316 µM
[4] = second compound 0.1 µM, first compound 1 µM
[5] = second compound 0.1 µM, first compound 3.16 µM
[6] = second compound 0.1 µM, first compound 10 µM
[7] = second compound 0.316 µM, first compound 0.0316 µM
[8] = second compound 0.316 µM, first compound 0.1 µM
[9] = second compound 0.316 µM, first compound 0.316 µM
[10] = second compound 0.316 µM, first compound 1 µM
[11] = second compound 0.316 µM, first compound 3.16 µM
[12] = second compound 0.316 µM, first compound 10 µM
[13] = second compound 1 µM, first compound 0.0316 µM
[14] = second compound 1 µM, first compound 0.1 µM
[15] = second compound 1 µM, first compound 0.316 µM
[16] = second compound 1 µM, first compound 1 µM
[17] = second compound 1 µM, first compound 3.16 µM
[18] = second compound 1 µM, first compound 10 µM
[19] = second compound 3.16 µM, first compound 0.0316 µM
[20] = second compound 3.16 µM, first compound 0.1 µM
[21] = second compound 3.16 µM, first compound 0.316 µM
[22] = second compound 3.16 µM, first compound 1 µM
[23] = second compound 3.16 µM, first compound 3.16 µM
[24] = second compound 3.16 µM, first compound 10 µM
[25] = second compound 10 µM, first compound 0.0316 µM
[26] = second compound 10 µM, first compound 0.1 µM
[27] = second compound 10 µM, first compound 0.316 µM
[28] = second compound 10 µM, first compound 1 µM
[29] = second compound 10 µM, first compound 3.16 µM
[30] = second compound 10 µM, first compound 10 µM
[31] = second compound 0.1 µM, first compound 0.00316 µM
[32] = second compound 0.1 µM, first compound 0.01 µM
[33] = second compound 0.316 µM, first compound 0.00316 µM
[34] = second compound 0.316 µM, first compound 0.01 µM
[35] = second compound 1 µM, first compound 0.00316 µM
[36] = second compound 1 µM, first compound 0.01 µM
[37] = second compound 3.16 µM, first compound 0.00316 µM
[38] = second compound 3.16 µM, first compound 0.01 µM
[39] = second compound 10 µM, first compound 0.00316 µM
[40] = second compound 10 µM, first compound 0.01 µM
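Note: viability read after seven days of drug exposure.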

In the case of `CC(C)NCC(C(=O)N1CCN(c2ncnc3c2C(C)CC3O)CC1)c1ccc(Cl)cc1` (stereo not given) + CC1OCC2(CCN(c3cnc(Sc4ccnc(N)c4Cl)c(N)n3)CC2)C1N, the IC50 (second compound 0.1 µM) is reported as > 10000 nM, the IC50 (second compound 0.316 µM) is reported as > 10000 nM and the IC50 (second compound 1 µM) is reported as 1080 nM. For the same molecule, the IC50 (second compound 3.16 µM) was 287 nM, the IC50 (second compound 10 µM) was 483 nM and the viability, T/C [1] was 67.8%. For the same molecule, the viability, T/C [2] was 82.7%, the viability, T/C [3] was 67.7% and the viability, T/C [4] was 61.8%. The viability, T/C [5] was 74.3%, the viability, T/C [6] was 53.7% and the viability, T/C [7] was 65.3%. It also gave a viability, T/C [8] of 66.8%, a viability, T/C [9] of 55.4% and a viability, T/C [10] of 60.3%. It also gave a viability, T/C [11] of 61.2%, a viability, T/C [12] of 48.7% and a viability, T/C [13] of 62%. For the same molecule, the viability, T/C [14] was 60.9%, the viability, T/C [15] was 46.5% and the viability, T/C [16] was 51.3%. It also gave a viability, T/C [17] of 53.3%, a viability, T/C [18] of 39.5% and a viability, T/C [19] of 56.5%. It also gave a viability, T/C [20] of 57.8%, a viability, T/C [21] of 43.1% and a viability, T/C [22] of 41.5%. It also gave a viability, T/C [23] of 48.4%, a viability, T/C [24] of 27.7% and a viability, T/C [25] of 54.1%. For the same molecule, the viability, T/C [26] was 66.9%, the viability, T/C [27] was 51.2% and the viability, T/C [28] was 38%. It also gave a viability, T/C [29] of 41.5% and a viability, T/C [30] of 20.7%.
For `CC1(C)CCC(CN2CCN(c3ccc(C(=O)NS(=O)(=O)c4ccc(NCC5CCOCC5)c([N+](=O)[O-])c4)c(Oc4cnc5[nH]ccc5c4)c3)CC2)=C(c2ccc(Cl)cc2)C1` + CC1OCC2(CCN(c3cnc(Sc4ccnc(N)c4Cl)c(N)n3)CC2)C1N, the IC50 (second compound 0.1 µM) was 5300 nM, the IC50 (second compound 0.316 µM) was 4270 nM and the IC50 (second compound 1 µM) was 1370 nM. For the same molecule, the IC50 (second compound 3.16 µM) was < 31.6 nM, the IC50 (second compound 10 µM) was < 31.6 nM and the viability, T/C [1] was 70.5%. It also gave a viability, T/C [2] of 75.5%, a viability, T/C [3] of 74% and a viability, T/C [4] of 81.3%. For the same molecule, the viability, T/C [5] was 89.9%, the viability, T/C [6] was 15.3% and the viability, T/C [7] was 62.2%. The viability, T/C [8] was 71.7%, the viability, T/C [9] was 51.1% and the viability, T/C [10] was 63.5%. It also gave a viability, T/C [11] of 69.2%, a viability, T/C [12] of 11.9% and a viability, T/C [13] of 53.5%. For the same molecule, the viability, T/C [14] was 51.5%, the viability, T/C [15] was 54.1% and the viability, T/C [16] was 50.3%. For the same molecule, the viability, T/C [17] was 45.7%, the viability, T/C [18] was 8.54% and the viability, T/C [19] was 48.1%. It also gave a viability, T/C [20] of 41.3%, a viability, T/C [21] of 35.1% and a viability, T/C [22] of 41.4%. The viability, T/C [23] was 46.7%, the viability, T/C [24] was 8.81% and the viability, T/C [25] was 40.3%. The viability, T/C [26] was 47.5%, the viability, T/C [27] was 37.2% and the viability, T/C [28] was 40.5%. For the same molecule, the viability, T/C [29] was 17.1% and the viability, T/C [30] was 1.93%.
For `CCN1CCN(Cc2ccc(Nc3ncc(F)c(-c4cc(F)c5nc(C)n(C(C)C)c5c4)n3)nc2)CC1` + CC1OCC2(CCN(c3cnc(Sc4ccnc(N)c4Cl)c(N)n3)CC2)C1N, the IC50 (second compound 0.1 µM) was > 1000 nM, the IC50 (second compound 0.316 µM) was > 1000 nM and the IC50 (second compound 1 µM) was > 1000 nM. For the same molecule, the IC50 (second compound 3.16 µM) was > 1000 nM, the IC50 (second compound 10 µM) was > 1000 nM and the viability, T/C [31] was 72.4%. The viability, T/C [32] was 87%, the viability, T/C [1] was 59% and the viability, T/C [2] was 61.5%. The viability, T/C [3] was 73.7%, the viability, T/C [4] was 66% and the viability, T/C [33] was 66.5%. It also gave a viability, T/C [34] of 70.6%, a viability, T/C [7] of 55.2% and a viability, T/C [8] of 57.2%. For the same molecule, the viability, T/C [9] was 75.5%, the viability, T/C [10] was 61.4% and the viability, T/C [35] was 70.6%. For the same molecule, the viability, T/C [36] was 59.5%, the viability, T/C [13] was 58.2% and the viability, T/C [14] was 60%. For the same molecule, the viability, T/C [15] was 62.2%, the viability, T/C [16] was 68.8% and the viability, T/C [37] was 66.8%. The viability, T/C [38] was 67.9%, the viability, T/C [19] was 60.9% and the viability, T/C [20] was 60.8%. The viability, T/C [21] was 63.8%, the viability, T/C [22] was 60.1% and the viability, T/C [39] was 62.6%. It also gave a viability, T/C [40] of 71.8%, a viability, T/C [25] of 63.5% and a viability, T/C [26] of 61.7%. It also gave a viability, T/C [27] of 57.4% and a viability, T/C [28] of 50.2%.
For `Cn1ncnc1[C@H]1c2n[nH]c(=O)c3cc(F)cc(c23)N[C@@H]1c1ccc(F)cc1` + CC1OCC2(CCN(c3cnc(Sc4ccnc(N)c4Cl)c(N)n3)CC2)C1N, the IC50 (second compound 0.1 µM) was > 100 nM, the IC50 (second compound 0.316 µM) was > 100 nM and the IC50 (second compound 1 µM) was 3.6 nM. For the same molecule, the IC50 (second compound 3.16 µM) was < 0.316 nM, the IC50 (second compound 10 µM) was < 0.316 nM and the viability, T/C (second compound 0.1 µM, first compound 0.000316 µM) was 72.5%. The viability, T/C (second compound 0.1 µM, first compound 0.001 µM) was 75%, the viability, T/C [31] was 63.8% and the viability, T/C [32] was 63.6%. It also gave a viability, T/C [1] of 63.7%, a viability, T/C [2] of 53.3% and a viability, T/C (second compound 0.316 µM, first compound 0.000316 µM) of 58%. For the same molecule, the viability, T/C (second compound 0.316 µM, first compound 0.001 µM) was 58.2%, the viability, T/C [33] was 61.5% and the viability, T/C [34] was 55.6%. The viability, T/C [7] was 46.6%, the viability, T/C [8] was 55.1% and the viability, T/C (second compound 1 µM, first compound 0.000316 µM) was 56.7%. For the same molecule, the viability, T/C (second compound 1 µM, first compound 0.001 µM) was 53.4%, the viability, T/C [35] was 52.7% and the viability, T/C [36] was 45%. It also gave a viability, T/C [13] of 45.4%, a viability, T/C [14] of 51.4% and a viability, T/C (second compound 3.16 µM, first compound 0.000316 µM) of 46.4%. The viability, T/C (second compound 3.16 µM, first compound 0.001 µM) was 44.4%, the viability, T/C [37] was 46.5% and the viability, T/C [38] was 44.5%. It also gave a viability, T/C [19] of 41.9%, a viability, T/C [20] of 41.8% and a viability, T/C (second compound 10 µM, first compound 0.000316 µM) of 43.6%. For the same molecule, the viability, T/C (second compound 10 µM, first compound 0.001 µM) was 47.5%, the viability, T/C [39] was 46.5% and the viability, T/C [40] was 38.5%. It also gave a viability, T/C [25] of 37.9% and a viability, T/C [26] of 40%.

Source: PubChem BioAssay AID1963871 (Molecular Pharmacology Branch, DTP, NCI, 2024)
